Experimental data: patent publication US5128249A, “Stable sulpho-adenosyl-L-methionine (SAMe) salts, particularly suitable for oral pharmaceutical use” (Bioresearch S.p.a., priority 1984, dated 1992)

Columns and labels:
[1] = Solubility in water and organic solvents; conditions: water
[2] = Absorption of SAMe salts in rats: areas under the SAMe plasmatic concentration curves (AUC); assay type: in vivo, Sprague Dawley male rats; conditions: 100 mg of active principle per kg, mean of 5 observations, extrapolated to infinity, 100 mg/kg; for AUC, intestinal administration: introduced into proximal jejunum; for AUC, oral administration: oral administration by gastric probe
Protocol: The absorption was studied on 110 Sprague Dawley male rats of weight 210 g which had fasted since the previous evening.
The products are administered in solution or in a 2% gum arabic aqueous suspension.
For each product, 5 rats are operated under ether anesthesia to allow the substance under examination to be introduced into the proximal jejunum. The wall incision is closed by ligature, and the animals sutured.
The product is administered to a further 5 animals orally by means of a gastric probe.
A blood sample is withdrawn from the caudal vein at the commencement and at 10, 20, 40, 60, 90, 120, 180 and 240 minutes after administration, and the SAMe concentration is determined on the sample by the modified method of Baldessarini and Kopin (J. Neurochem. 13: 769, 1966).
The plasmatic concentration values less the initial values are plotted against time and the areas under the time curves to infinity calculated by the trapezium and curve extrapolation method.
Areas under the SAMe plasmatic concentration curves (AUC) for rats treated intestinally and orally with the listed products at a dosage corresponding to 100 mg of active principle per kg of body weight. The values represent the mean of 5 observations.

SMILES | solubility [1] [µg/mL] | AUC, intestinal administration [2] [N moles · ml^-1 × min] | AUC, oral administration [2] [N moles · ml^-1 × min]
CCCCCCCCCCCCCCS(=O)(=O)[O-].[Na+] | 10000 |  | 
C[S+](CC[C@H](N)C(=O)[O-])C[C@H]1O[C@@H](n2cnc3c(N)ncnc32)[C@H](O)[C@@H]1O (some centres unmarked) [Example S5, SAMe tri pentanesulphonate, reference compound] |  | 4900 | 950
C[S+](CC[C@H](N)C(=O)[O-])C[C@H]1O[C@@H](n2cnc3c(N)ncnc32)[C@H](O)[C@@H]1O (some centres unmarked) [Example S1, SAMe tri methanesulphonate, reference compound] |  | 4400 | 870
C[S+](CC[C@H](N)C(=O)[O-])C[C@H]1O[C@@H](n2cnc3c(N)ncnc32)[C@H](O)[C@@H]1O (some centres unmarked) [SAMe SO4 -PTS, SAMe disulphatep-toluenesulphonate, reference compound] |  | 6700 | 990
C[S+](CC[C@H](N)C(=O)[O-])C[C@H]1O[C@@H](n2cnc3c(N)ncnc32)[C@H](O)[C@@H]1O (some centres unmarked) [Example S14, SAMe tri tetradecanesulphonate] |  | 26800 | 9800
C[S+](CC[C@H](N)C(=O)[O-])C[C@H]1O[C@@H](n2cnc3c(N)ncnc32)[C@H](O)[C@@H]1O (some centres unmarked) [Example S16, SAMe tri hexadecanesulphonate] |  | 25300 | 9600
C[S+](CC[C@H](N)C(=O)[O-])C[C@H]1O[C@@H](n2cnc3c(N)ncnc32)[C@H](O)[C@@H]1O (some centres unmarked) [DSS, SAMe tri dioctylsulphosuccinate] |  | 18500 | 8000
C[S+](CC[C@H](N)C(=O)[O-])C[C@H]1O[C@@H](n2cnc3c(N)ncnc32)[C@H](O)[C@@H]1O (some centres unmarked) [Example S12, SAMe tri dodecanesulphonate] |  | 25500 | 9700
C[S+](CC[C@H](N)C(=O)[O-])C[C@H]1O[C@@H](n2cnc3c(N)ncnc32)[C@H](O)[C@@H]1O (some centres unmarked) [Example S18, SAMe tri octadecanesulphonate] |  | 24100 | 9400
C[S+](CC[C@H](N)C(=O)[O-])C[C@H]1O[C@@H](n2cnc3c(N)ncnc32)[C@H](O)[C@@H]1O (some centres unmarked) [Example S6, SAMe tri hexanesulphonate, reference compound] |  | 6900 | 980
C[S+](CC[C@H](N)C(=O)[O-])C[C@H]1O[C@@H](n2cnc3c(N)ncnc32)[C@H](O)[C@@H]1O (some centres unmarked) [Example S012, SAMe tri laurylsulphate] |  | 20800 | 8900
C[S+](CC[C@H](N)C(=O)[O-])C[C@H]1O[C@@H](n2cnc3c(N)ncnc32)[C@H](O)[C@@H]1O (some centres unmarked) [DBS, SAMe tri dodecylbenzenesulphonate] |  | 17000 | 7800
